From patent EP0340198B1, “Immunoassay for the detection of alpha-haloacetamides” (priority 1988, dated 1989)

Experiments:
alachlor antibodies = assay: inhibition ELISA for alachlor (cross-reactivity studies); assay type: binding, rabbit; details: for reaction (cross-reactivity) with the antibodies, in words: relative to alachlor; for ELISA % Absorbance MEAN (n = 20): antisera from bleed seven
Procedure: Immunoassays. A known "checkerboard assay" was initially conducted with each serum sample after the first boost to detect the production of antibodies against alachlor. […] The next 7 rows received the subsequent dilutions of the screening antigen. The plate was covered with Parafilm and stored overnight at 4°C. The next morning, the unbound screening antigen was removed from the wells by washing three times with phosphate buffered saline solution (0.01 M phosphate buffer of pH 7.4, 0.15 M NaCl; PBS). The remaining active sites in the wells were blocked with PBS-8% non-fat dry milk solution, (NFDM, 0.3 mL) for 1 hr at 22°C. Serum, which had been stored at -20°C, was freshly thawed and serially diluted (one to two) from 1,000 to 64,000-fold using PBS-T (PBS containing 0.02% Tween 20). Starting with the most concentrated solution, 0.1 mL of the serum solution was pipetted into all 8 wells of column 1; the remaining columns received the subsequent dilutions of the serum solution. The plate was covered and incubated at 22°C for 1.5 hrs. Following triplicate washes of the wells with PBS-T, each of the wells received 0.1 mL of goat anti-rabbit gamma-globulin conjugated to horseradish peroxidase (GAR-HRP) freshly thawed and diluted 4,000 fold with PBS-1% NFDM. After a final wash cycle (4 times) with PBS-T, freshly prepared O-phenylene diamine (PDA) substrate solution (0.2 mL, 0.04 mg/mL PDA and 0.01% H₂O₂ in 0.05 M citric acid and 0.15 M sodium dibasic phosphate, pH 5.0) was dispensed into each of the wells and incubated in the dark at 22°C for 30-60 min. Sulfuric acid (4 N, 50 µL) was added to each of the wells to stop the reaction, and the final absorbances of the wells (490 nm) were recorded.
The inhibition ELISA required one additional step in the assay procedure described above. Equal volumes of the diluted serum and aqueous alachlor standard or unknown sample were mixed and preincubated at 22°C for 1 hr. This mixture (0.1 mL/well) was then analyzed in 6 replicate wells on the plate. The presence of free alachlor inhibited the binding of the antibody to the alachlor-BSA conjugate, resulting in an inhibition of the development of absorbance at 490 nm. The amount of free alachlor was indirectly proportional to the intensity of color developed. Levels of alachlor in unknown water samples were calculated based on the alachlor standards on the same plate. Alachlor standards (0, 0.2, 0.5, 1.0, 3.0, 5.0, and 8.0 ppb in deionized water) were stored at -20°C in 1-mL portions, and were freshly thawed for each assay.
Data Calculations. The lay-out of a typical 96-well microtiter plate is 8 rows of 12 columns in an inhibition ELISA assay for alachlor. The first 6 wells in the first column of wells were not coated with the screening antigen and served as the background wells. The first 6 wells in the remaining 7 columns of wells were reserved for the seven alachlor standards (0 to 8 ppb) listed above. The remaining wells in all 8 rows were used for the samples. The uncorrected absorbances of the wells determined by the Bio-tek reader were used in the following calculations. The median was calculated for the 6 replicate background wells and was then subtracted from the medians of the standards and samples. All the median values were divided by the median of the standard without alachlor (0 ppb) to generate percentages of absorbances. The percent absorbance of the alachlor standards was then plotted on the Y axis against the logarithm (base 10) of the actual concentrations of alachlor on the X axis. A hyperbolic curve was drawn through the standards, and the resulting standard curve was used to calculate the concentrations of alachlor in the unknown samples.
The calculations described above were usually carried out using a computer program.

affinity column = affinity column extraction of alachlor from rat urine containing alachlor metabolites; assay type: binding, rabbit; details: 0.5 µg/2 mL Urine
Procedure: Affinity Chromatography. The preparation of affinity columns using rabbit antisera was as follows: The rabbit IgG's were purified by passing 5 mL of the antiserum through a column containing 5 mL of the swelled protein A-agarose gel. By monitoring the absorbance at 280 nm in the column effluent, the non-bound proteins were removed by washing with PBS, and the IgG's were then eluted with acetic acid at pH 2.3 (0.58% acetic acid and 0.15 M NaCl). The fractions containing the IgG's were combined and neutralized; based on the UV absorbance at 280 nm (absorbance/1.4 = mg/mL protein), approximately 33 mg of IgG were isolated from 5 mL of serum, which was then lyophilized and stored at -20°C. The reusable protein A-agarose column was stored in PBS containing 0.02% sodium azide at 4°C.
The protein A-purified IgG was immobilized onto Affigel-10 affinity support. Affigel-10 (5 mL) was washed 3 times with isopropyl alcohol and 3 times with cold distilled water in a Buchner funnel. The gel was then added to a solution of IgG (3 mL in 0.1 M HEPES buffer, pH 7.5) at 4°C. Following 4 hrs of stirring, the gel was precipitated by gentle centrifugation and washed with HEPES buffer (3 x 3 mL). The remaining active sites on the gel were blocked by resuspending the gel in water (2 mL) and adding ethanolamine HCl (0.5 mL, 1M), and stirring the mixture at 22°C for 1 hr. […]

Compound: CCOCN(C(=O)CCl)c1c(C)cccc1CC [Acetochlor, acetochlor]
- percent cross-reactivity (alachlor antibodies; bleed four): 10%
- cross-reactivity in the subsequent bleeds (alachlor antibodies; bleeds after bleed four): decreased slightly
- reaction (cross-reactivity) with the antibodies, in words (alachlor antibodies): little to no interaction

Compound: CCc1cccc(CC)c1N(COC)C(=O)CCl [Alachlor, α-chloro-2′,6′-diethyl-N-methoxymethyl acetanilide]
- % 14C Eluent (75% CH3OH) (affinity column): 83.3%
- % 14C Wash (H2O) (affinity column): 14.7%
- ELISA % Absorbance MEAN (n = 20) (alachlor antibodies; Alachlor Conc. 0.2 ppb): 78.1%
- ELISA % Absorbance MEAN (n = 20) (alachlor antibodies; Alachlor Conc. 0.5 ppb): 55.3%
- ELISA % Absorbance MEAN (n = 20) (alachlor antibodies; Alachlor Conc. 1.0 ppb): 37.4%
- ELISA % Absorbance MEAN (n = 20) (alachlor antibodies; Alachlor Conc. 3.0 ppb): 22.9%
- ELISA % Absorbance MEAN (n = 20) (alachlor antibodies; Alachlor Conc. 5.0 ppb): 17.7%
- ELISA % Absorbance MEAN (n = 20) (alachlor antibodies; Alachlor Conc. 8.0 ppb): 11.3%
- percent cross-reactivity (alachlor antibodies; IC50 of alachlor divided by IC50 of analog x 100, bleed not stated): 100%

Compound: CC(C)N(C(=O)CCl)c1ccccc1 [Propachlor, propachlor]
- reaction (cross-reactivity) with the antibodies, in words (alachlor antibodies): little to no interaction
